Test [1] concerns Androstenedione-Induced Uterus Growth. Description: Influence on androstenedione-induced uterus growth in infantile rats (Test b). Particulars: 3 days; for Uterus Weight: infantile female rats; for Inhibition in % (of uterus growth, based on the androstenedione group): vehicle basic value deducted. Format: in vivo, rat. The method, then: (§1) The following compounds are examined as representative:
Influence on Androstenedione-Induced Uterus Growth in Infantile Rats
Infantile female rats receive once daily the compound to be tested in combination with androstenedione over a period of three days. One group receives only androstenedione, and a further group only the vehicle. One day after the last treatment, the animals are sacrificed by decapitation and exsanguination, and the fresh uterus weights (without content) are determined. The uterus weights are calculated for mg/100 g body weight. The average value and standard deviation are calculated for each group. Variance analysis is used to check the significances of the differences with respect to the control group (androstenedione group and, respectively, vehicle group). Furthermore, the percentage inhibition of uterus growth is determined, based on the androstenedione group. In this determination, the uterus weight of the vehicle group (basic value) is deducted from the corresponding weight of the androstenedione group. The individual dosage groups, after subtracting the basic value, are based on the thus-obtained value.

The target of the next test is T1, aromatase (Homo sapiens, UniProt P11511).
T1 construct: microsomes obtained from human placenta; from tissue; host or cells: human placenta (microsomes)
T1 sequence (P11511 1-503): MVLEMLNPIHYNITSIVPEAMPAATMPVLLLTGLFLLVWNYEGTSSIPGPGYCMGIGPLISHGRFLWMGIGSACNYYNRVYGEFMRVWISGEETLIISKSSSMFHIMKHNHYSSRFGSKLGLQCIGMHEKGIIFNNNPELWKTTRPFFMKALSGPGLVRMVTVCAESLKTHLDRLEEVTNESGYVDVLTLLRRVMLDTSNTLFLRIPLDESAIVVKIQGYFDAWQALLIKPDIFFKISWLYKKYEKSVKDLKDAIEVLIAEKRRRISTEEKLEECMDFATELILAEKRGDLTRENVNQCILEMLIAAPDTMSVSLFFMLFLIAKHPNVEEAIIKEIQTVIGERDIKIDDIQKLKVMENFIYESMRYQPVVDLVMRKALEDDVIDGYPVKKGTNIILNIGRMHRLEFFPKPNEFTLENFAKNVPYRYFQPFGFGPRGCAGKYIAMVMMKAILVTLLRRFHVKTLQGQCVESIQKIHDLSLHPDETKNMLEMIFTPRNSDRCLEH
Description: Aromatase inhibition in human placenta (Test a): microsomes, release of 3H2O from [1β-3H]-androstenedione, Ki by Dixon plot. Format: biochemical. The method, then: as §1
Aromatase Inhibition in Human Placenta
The abilities of the compounds of inhibiting the enzyme system of aromatase is tested on microsomes obtained from human placenta.

Setting [2] is: compound + AD, 0.2 + 30 mg/kg/day, hydrochloride, 30 mg/kg/day.
The mark [3] stands for this setting: compound + AD, 2.0 + 30 mg/kg/day.
[4] abbreviates: human placenta microsomes, [1β-3H]-androstenedione substrate, 4-OH-androstenedione as reference compound, read-out: Ki, Aromatase.
[5] abbreviates: compound + AD, 0.2 + 30 mg/kg/day.

pKi: −log10 of the molar value. Several values for one entry are separate records, joined by “and”; a condition that tells them apart may be missing. Equal entries are not always repeated. Structures can show the parent of a compound that is named as a salt. Where two headings read alike, the source gives them in different places.

Take `N#Cc1ccc(C2CCCc3cncn32)cc1` (racemic) [D, 5-(p-cyanophenyl)-5,6,7,8tetrahydroimidazo[-1,5a]pyridine, hydrochloride, reference compound]: in test [1] (setting [2]), the “Uterus Weight” value was 69.9 ± 6.6 mg/100 g BW and 83.2 ± 6.9 mg/100 g BW; the “Inhibition in % (of uterus growth, based on the androstenedione group)” value (“Inhibition in %” below) was 84% and 86%.

For the compound `C[C@]12CCC(=O)C(O)=C1CC[C@@H]1[C@@H]2CC[C@]2(C)C(=O)CC[C@@H]12` [4-OH-Androstenedione, reference compound], the pKi at aromatase (Ki, Aromatase) was 7.21 and 7.39.

`C[C@]12CCC(=O)C=C1CC[C@@H]1[C@@H]2CC[C@]2(C)C(=O)CC[C@@H]12` [Androstenedione, reference compound]: the “Uterus Weight” value in test [1] (androstenedione (AD) alone 30 mg/kg/day) was 213.6 ± 32.4 mg/100 g BW and 183.5 ± 22.7 mg/100 g BW.

Turning to `N#Cc1ccc(C(=C2CCCC2)n2ccnc2)cc1` [C, 4-[1-Cyclopentylidene-1-(1-imidazolyl)methyl]benzonitrile], in test [1] (setting [3]), the “Uterus Weight” value is 69.2 ± 5.7 mg/100 g BW and the “Inhibition in %” value stood at 85%.

With `Cl.N#Cc1ccc(C(=C2CCCCC2)n2ccnc2)cc1` [Compound A, 4-[1-Cyclohexylidene-1-(1-imidazolyl)methyl]benzonitrile, hydrochloride], on aromatase (setting [4]), the pKi was 9.72. In addition, in test [1] (setting [5]), the “Uterus Weight” value turned out to be 108.2 ± 11.9 mg/100 g BW and the “Inhibition in %” value is 69%. Also, in test [1] (setting [3]), the “Uterus Weight” value amounted to 100.1 ± 18.8 mg/100 g BW and the “Inhibition in %” value is recorded as 74%.

In the case of `N#Cc1ccc(C(=C2CCCCC2)n2ccnc2)cc1` [Compound B, 4-[1-Cyclohexylidene-1-(1-imidazolyl)methyl]benzonitrile], on aromatase (setting [4]), the pKi is 9.32. Moreover, in test [1] (setting [3]), the “Uterus Weight” value is recorded as 72.5 ± 10.3 mg/100 g BW and the “Inhibition in %” value was determined as 82%.

Usually pKi stands for −log10 of the Ki, conventionally taken in molar units.

The values are drawn from patent publication US5135937A, “Cycloalkylene azoles and pharmaceutical preparations obtained therefrom” (Schering Aktiengesellschaft, priority 1989, dated 1992).
